Data as given in PMC2099433, “The binding site for neohesperidin dihydrochalcone at the human sweet taste receptor” (BMC Structural Biology, 2007).
Substitutions are numbered along the chain they refer to. Where a SMILES comes first, the peptide text is derived from it.

Legend:
[1] = molecular target: T1, hTAS1R2 + hTAS1R3 H721A^ex2 (Homo sapiens, UniProt Q7RTX0+Q8TE23, H721A); assay: Calcium response (FLIPR), hTAS1R3 mutant coexpressed with hTAS1R2; assay type: cell-based; conditions: variant H721A^ex2; for Emax: read-out: maximal signal (% of wt)
T1 construct: expressed in transfected cells; host or cells: HEK293T cells stably expressing G16Gust44
T1 sequence (Q8TE23 20-839): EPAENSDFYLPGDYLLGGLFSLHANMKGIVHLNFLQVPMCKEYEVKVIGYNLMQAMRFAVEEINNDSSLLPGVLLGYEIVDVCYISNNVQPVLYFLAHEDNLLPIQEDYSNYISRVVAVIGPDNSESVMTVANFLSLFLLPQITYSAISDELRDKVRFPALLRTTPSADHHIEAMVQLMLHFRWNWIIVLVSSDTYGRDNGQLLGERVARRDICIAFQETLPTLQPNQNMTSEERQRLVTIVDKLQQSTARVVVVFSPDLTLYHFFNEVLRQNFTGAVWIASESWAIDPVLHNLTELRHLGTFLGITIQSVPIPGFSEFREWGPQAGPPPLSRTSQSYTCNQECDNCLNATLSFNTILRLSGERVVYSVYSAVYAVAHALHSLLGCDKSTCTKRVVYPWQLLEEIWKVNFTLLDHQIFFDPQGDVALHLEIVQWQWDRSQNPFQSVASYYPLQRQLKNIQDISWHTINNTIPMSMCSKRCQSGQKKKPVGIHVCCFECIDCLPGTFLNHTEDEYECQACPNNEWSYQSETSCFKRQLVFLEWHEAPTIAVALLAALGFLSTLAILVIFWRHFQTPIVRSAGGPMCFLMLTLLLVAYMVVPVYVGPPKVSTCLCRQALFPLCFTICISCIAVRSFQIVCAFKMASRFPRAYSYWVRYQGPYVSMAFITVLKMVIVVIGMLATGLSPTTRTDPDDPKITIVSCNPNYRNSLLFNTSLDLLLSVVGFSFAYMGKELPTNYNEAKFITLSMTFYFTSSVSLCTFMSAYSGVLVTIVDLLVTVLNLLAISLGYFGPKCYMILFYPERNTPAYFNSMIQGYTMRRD
T1 sequence (Q7RTX0 21-852 H721A): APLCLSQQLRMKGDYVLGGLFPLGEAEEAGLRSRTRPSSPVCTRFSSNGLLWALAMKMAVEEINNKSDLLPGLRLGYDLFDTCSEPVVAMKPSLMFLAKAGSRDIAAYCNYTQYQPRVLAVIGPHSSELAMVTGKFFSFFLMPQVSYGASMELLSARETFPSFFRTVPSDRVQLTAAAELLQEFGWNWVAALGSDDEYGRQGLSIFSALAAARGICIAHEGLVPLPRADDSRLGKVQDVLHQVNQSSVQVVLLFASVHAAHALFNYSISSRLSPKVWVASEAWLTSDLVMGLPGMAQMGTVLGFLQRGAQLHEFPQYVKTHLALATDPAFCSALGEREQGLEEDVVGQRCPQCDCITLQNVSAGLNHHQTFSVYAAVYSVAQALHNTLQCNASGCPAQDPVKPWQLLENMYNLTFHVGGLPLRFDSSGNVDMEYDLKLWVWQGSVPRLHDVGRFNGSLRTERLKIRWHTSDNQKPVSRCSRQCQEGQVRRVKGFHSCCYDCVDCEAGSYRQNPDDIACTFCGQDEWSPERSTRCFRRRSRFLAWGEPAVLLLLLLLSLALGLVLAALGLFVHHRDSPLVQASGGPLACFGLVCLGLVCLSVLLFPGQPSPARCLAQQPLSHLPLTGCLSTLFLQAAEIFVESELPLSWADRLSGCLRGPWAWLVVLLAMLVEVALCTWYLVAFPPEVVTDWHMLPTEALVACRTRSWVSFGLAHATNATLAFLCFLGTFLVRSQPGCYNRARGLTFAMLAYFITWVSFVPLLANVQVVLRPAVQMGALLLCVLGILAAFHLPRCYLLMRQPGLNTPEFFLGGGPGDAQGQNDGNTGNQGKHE
Summary of the method: (§1)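 HEK293T/G16Gust44, transient transfection of HSV-tagged TAS1R2 + TAS1R3 mutants; Fluo4-AM loading 1 h at 24 h; sweet tastants in C1 solution; FLIPR Ca2+ read; ΔF/F, mock-subtracted; ≥3 independent expts in duplicate.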

[2] = molecular target: T2, hTAS1R2 + hTAS1R3 Q637E^3.29 (Homo sapiens, UniProt Q7RTX0+Q8TE23, Q637E); assay: as above; assay type: cell-based; conditions: variant Q637E^3.29; for Emax: read-out: maximal signal (% of wt)
T2 construct: expressed in transfected cells; host or cells: HEK293T cells stably expressing G16Gust44
T2 sequence (Q8TE23 20-839): T1 sequence (Q8TE23 20-839)
T2 sequence (Q7RTX0 21-852 Q637E): T1 sequence (Q7RTX0 21-852 H721A) with Q617E, A701H
Summary of the method: as §1

| SMILES | EC50 [1] [mM] | Emax [1] [%] | EC50 [2] [mM] | Emax [2] [%] |
| --- | --- | --- | --- | --- |
| COc1ccc(CCC(=O)c2c(O)cc(O[C@@H]3O[C@H](CO)[C@@H](O)[C@H](O)[C@H]3O[C@@H]3O[C@@H](C)[C@H](O)[C@@H](O)[C@H]3O)cc2O)cc1O [NHDC, neohesperidin dihydrochalcone] | 0.8 ± 0.3 | 66 ± 10 | 1.5 ± 0.4 | 51 ± 13 |
| COC(=O)[C@H](Cc1ccccc1)NC(=O)[C@@H](N)CC(=O)O [aspartame] (HELM PEPTIDE1{D.F.[CO[*:1]]}$$$$V2.0) | 1.6 ± 0.3 | 60 ± 40 | 1.7 ± 0.2 | 51 ± 10 |
